These results are taken from ChEMBL document CHEMBL4251544, “Identification of imidazo[1,2-b]pyridazine TYK2 pseudokinase ligands as potent and selective allosteric inhibitors of TYK2 signalling” (Medchemcomm, 2017).

Holding throughout (format): ADME, organism-based
Data set [1] is described as follows: AUClast in Balb/c mouse at 25 mg/kg, po. Further details: dose 25 mg/kg, route oral, time 0 - last. As to conditions: in vivo.
A short description of data set [2]: AUClast in Balb/c mouse at 3 mg/kg, iv. Further details: dose 3 mg/kg, route intravenous, time 0 - last. The note with it: in vivo.
The nature of data set [3]: Oral bioavailability in Balb/c mouse at 25 mg/kg. As to conditions: in vivo.
Data set [4] can be described thus: Volume of distribution at steady state in Balb/c mouse at 3 mg/kg, iv. The note with it: in vivo, read-out: Vdss.
Data set [5] is described as follows: Cmax in Balb/c mouse at 25 mg/kg, po. Further details: dose 25 mg/kg, route oral. As to conditions: in vivo.

As for `CNc1cc(Nc2cc(F)cc(F)c2OC)nn2c(C(=O)NC[C@](C)(O)CO)cnc12`, the AUC(0-t) (in general, the area under the concentration-time curve up to a stated or last time point) in data set [1] stood at 5.1 µM·h; in data set [2], 2.3 µM·h. The bioavailability (usually dose-corrected exposure relative to a reference, in per cent) in data set [3] is 27%. Moreover, the Vd in data set [4] is 6.3 L/kg. Further, the highest level in data set [5] (Cmax) was 2800 nM.
